The text below walks through data of US11234985B2, “Antiviral therapy” (VIIV HEALTHCARE COMPANY, priority 2010, dated 2022).

The test system of the experiment is HIV-1 (strain IIIB). The experiment can be described thus: Antiviral HIV activity in combination, tetrazolium-based (MTS) colorimetric checkerboard assay in MT-4 cells. In kind it is cell-based. The following applies: HIV-1 IIIB infected MT-4 cells, 5 days. On the procedure:
Antiviral HIV activity was measured by means of a tetrazolium-based colorimetric procedure in the human T-cell leukemia virus (HTLV-1) transformed cell line MT-4. Aliquots of test compound were diluted vertically across a deep-well master assay plate, in medium (RPMI 1640, 10% vol./vol. fetal bovine serum (FBS), and 10 μg/mL gentamicin), at concentrations that were approximately 40-fold higher than the final assay concentration. Serial dilutions were made at either 1:2 or 1:3.16 ratios. HIV inhibitors were diluted horizontally across master assay plates, also in concentrations that were approximately 40-fold higher than the final assay concentration. Small aliquots of both the vertically-diluted and the horizontally-diluted compounds were combined in daughter plates using an automated 96-well pipetting system (RapidPlate-96, Zymark Corp.). Checkerboard style dilutions were arranged so that every concentration of test compound was tested in the presence and absence of every concentration of the HIV inhibitors. Anti-HIV activity tests were performed in triplicate assays, or more, of each combination. Exponentially growing MT-4 cells were harvested and centrifuged at 1,000 rpm for 10 minutes in a Jouan centrifuge (Model CR 4 12). Cell pellets were re-suspended in fresh medium (RPMI 1640, 20% vol./vol. FBS, 20% vol./vol. IL-2, and 10 μg/mL gentamicin) to a density of 1.25×10^6 cells/mL. Cell aliquots were infected by the addition of HIV-1 (strain IIIB) diluted to give a viral multiplicity of infection (MOI) of 73 pfU per 1×10^4 cells. A similar cell aliquot was diluted with medium to provide a mock-infected control. Cell infection was allowed to proceed for 1 hour at 37° C. in a tissue culture incubator with humidified 5% CO2 atmosphere. After the 1 hour incubation the virus/cell suspension was added to each well of the plates containing pre-diluted compounds. Plates were then placed in a tissue culture incubator with humidified 5% CO2 for 5 days. At the end of the incubation period, […] of CellTiter 96 MTS reagent (Promega no. G3581) was added to each well of the incubation plate. Plates were incubated at 37° C. for 2 to 3 hours to allow for color development. O.D. was measured at […] using a microplate absorbance reader (Tecan no. 20-300).
HIV-1 strain IIIB, wild-type laboratory strain, virus titer=6.896 E4 TCID50/mL.
Although some assay formats might theoretically miss antagonism due to combination cytotoxicity, the approach described here should not miss an antagonistic effect. The readout in the MT-4 cell assay utilizes MTS, a tetrazolium-based staining reagent where changes in optical density (O.D.) of the reagent are used to estimate the total cell number remaining after treatment. Final MT-4 cell numbers may decrease due to two effects. First, an HIV-induced cytotoxicity may occur when HIV kills greater than 75% of the MT-4 cells during the 5 days following infection. Second, a compound-induced cytotoxicity may occur, where the compound either directly kills the MT-4 cells or prevents cell growth (stasis) over the 5 days in either infected or uninfected cells. In either of these situations the O.D. is low as compared with infected cells protected by anti-HIV-1 compounds or relative to untreated and uninfected control cells. Since both cytotoxic effects and antagonism of anti-HIV activity would lead to lower O.D. we should not miss an antagonistic effect due to combination cytotoxicity, but could underestimate synergistic combinations.
Within assay combination cytotoxicity was evaluated by comparing wells containing the uninfected MT-4 cells from the assay plates that contained the highest concentration of test compound or the comparator compound, with wells containing […] MT-4 cells under the corresponding highest combination concentrations. For each of these values there is one well per assay plate and thus at least 3 wells per combination assay. […]

`C[C@@H]1CCO[C@H]2Cn3cc(C(=O)NCc4ccc(F)cc4F)c(=O)c(O)c3C(=O)N12` [formula (I)]: the “interaction (deviation from dosewise additivity) of anti-HIV activity” value is, setting by setting: (in combination with abacavir) “synergistic”; (in combination with adefovir) “additive”; (in combination with amprenavir) “synergistic”; (in combination with efavirenz) “synergistic”; (in combination with enfuvirtide) “synergistic”; (in combination with lopinavir) “synergistic”. For the same molecule, the “interaction (deviation from dosewise additivity) of anti-HIV activity” value is recorded as “additive” (in combination with maraviroc), “synergistic” (in combination with nevirapine), “additive” (in combination with raltegravir) and “synergistic” (in combination with stavudine). In addition, for the setting “in the presence of ribavirin”, the “effect of the presence of ribavirin on anti-HIV activity” value is “not affected”.
